Values of other authors as cited in patent US6656473B2, “Tryptophan source from plants and uses thereof” (priority 2000, dated 2003).

Target: plasma albumin (Homo sapiens, UniProt P02768)
Conditions: after absorption

Chain of plasma albumin (P02768 25-609): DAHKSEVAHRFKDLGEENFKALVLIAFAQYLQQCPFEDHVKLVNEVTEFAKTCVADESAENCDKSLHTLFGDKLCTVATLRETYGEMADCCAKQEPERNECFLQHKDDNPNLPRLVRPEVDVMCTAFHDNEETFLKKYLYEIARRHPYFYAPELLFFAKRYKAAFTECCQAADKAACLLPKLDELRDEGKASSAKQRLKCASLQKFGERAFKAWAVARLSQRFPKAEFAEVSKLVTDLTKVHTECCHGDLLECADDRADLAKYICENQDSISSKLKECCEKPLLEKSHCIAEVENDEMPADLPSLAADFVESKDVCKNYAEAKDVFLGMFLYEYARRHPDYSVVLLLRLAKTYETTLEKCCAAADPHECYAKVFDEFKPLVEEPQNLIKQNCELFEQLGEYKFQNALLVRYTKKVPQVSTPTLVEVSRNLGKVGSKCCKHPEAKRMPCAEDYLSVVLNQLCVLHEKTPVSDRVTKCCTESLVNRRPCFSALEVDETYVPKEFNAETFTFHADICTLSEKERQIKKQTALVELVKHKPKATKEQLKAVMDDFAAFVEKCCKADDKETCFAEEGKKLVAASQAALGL

In the case of N[C@@H](Cc1c[nH]c2ccccc12)C(=O)O [tryptophan], the “Share circulating as free tryptophan” value is given as 20% and the “Share circulating in the blood bound to plasma albumin” value is given as “approximately 80%”.
